Legend:
[1] = system: glycine modulatory site of the N-methyl-D-aspartate (NMDA) receptor complex; conditions: J. Neurochem., 52, 1319-1328, 1989; in words; cited from earlier work
KYNA production = assay: Determination of inhibition of KYNA production by rat tissue slices (cerebral cortex); format: cell-based; conditions: 50 μM L-KYN, 2 h at 37° C.
Method: B) Determination of inhibition of KYNA production by rat tissue slices
Routinely, slices (base 1×1 mm; weight 1.5 mg/slice) from the cerebral cortex were separated on ice and transferred to culture wells (10 slices/well) containing 1 ml of oxygenated Krebs-Ringer buffer (NaCl, 118.5 mM; KCl, 4.75 mM; CaCl2, 1.77 mM; MgSO4, 1.18 mM; NaH2 PO4, 12.9 mM; NaH2 PO4, 3 mM; glucose, 5 mM; pH 7.4). Subsequently, the tissue was preincubated for 10 min at 37° C. and incubated further for 2 h at 37° C., in the presence of 50 μM L-KYN in an oxygenated chamber, on a shaking water bath. Compounds of the present invention were included in the incubation mixture as needed. Following incubation, the culture wells were immediately placed on ice, and the slices were rapidly separated from the incubation medium. For KYNA determination, 1 ml samples of the incubation medium were immersed in a boiling water bath for 10 min, and the precipitated proteins were removed by centrifugation (8,730×g, 10 min). The supernatants were diluted (1:1, v/v) with 0.2M HCl and applied to Dowex 50W (hydrogen form, Sigma) cation-exchange columns (0.5×2 cm). Subsequently, the columns were washed with 1 ml of 0.1M HCl and 1 ml of water, and the fraction containing KYNA was eluted with 2 ml of water. The eluates were applied to a 3-μm C18 HPLC column (100×3.2 internal diameter, Bioanalytical Systems, West Lafayette, Ind., U.S.A.), and KYNA was isocratically eluted with a mobile phase containing 50 mM ammonium acetate and 5% methanol at a flow rate of 0.5 ml/min. Under these conditions, the retention time of KYNA was ≈7 min.
Data were recorded and calculated with a Hewlett-Packard 3390A integrator connected to a model 160 UV absorbance detector (Beckman Instruments, Berkeley, Calif., U.S.A.) set at 340 nm.

[2] = system: Kynurenine Aminotransferase (KAT); assay: Determination of KAT activity inhibition in rat brain homogenate; format: biochemical; conditions: 2 μM [3H]KYN, 2 h at 37° C., pH 8.0
Method: A) Determination of KAT activity inhibition in rat brain homogenate
KAT was measured as described in detail by Okuno et al. (Measurement of rat brain kynurenine amino-transferase at physiological kynurenine concentrations, J. Neurochem., 57, 533-540, 1991).
Briefly, animals were killed by decapitation and the brain tissue was homogenized (1:5 v/w in 5 mM Tris-acetate buffer, pH 8.0, containing 10 mM 2-mercaptoethanol and 50 μM pyridoxal 5'-phosphate) and incubated for 2 h at 37° C. in the presence of 2 μM [^3 H]KYN (30 nCi), 1 mM 2-oxoglutarate and 70 μM pyridoxal 5'-phosphate in 150 mM Tris-acetate buffer, pH 8.0. The reaction was terminated by the addition of trichloroacetic acid.
Newly synthesized [^3 H]KYNA was separated from [^3 H]KYN on a Dowex 50W cation-exchange column and quantitated by liquid scintillation spectrometry. Blanks were obtained by using tissue which had been heat-deactivated for 10 minutes in a boiling water bath.

KAT = target: T1, KAT (Rattus norvegicus, UniProt Q08415); assay: Kinetic analysis of KAT inhibitors using a partially purified enzyme preparation; format: biochemical; conditions: KYN 2 μM to 2 mM; double reciprocal plots; pyruvate 1 mM; pH 8.0, 37° C.
T1 construct: a preparation of partially purified enzyme; from tissue; the cited method purifies from rat kidney and brain (own knowledge)
T1 sequence (Q08415 1-423): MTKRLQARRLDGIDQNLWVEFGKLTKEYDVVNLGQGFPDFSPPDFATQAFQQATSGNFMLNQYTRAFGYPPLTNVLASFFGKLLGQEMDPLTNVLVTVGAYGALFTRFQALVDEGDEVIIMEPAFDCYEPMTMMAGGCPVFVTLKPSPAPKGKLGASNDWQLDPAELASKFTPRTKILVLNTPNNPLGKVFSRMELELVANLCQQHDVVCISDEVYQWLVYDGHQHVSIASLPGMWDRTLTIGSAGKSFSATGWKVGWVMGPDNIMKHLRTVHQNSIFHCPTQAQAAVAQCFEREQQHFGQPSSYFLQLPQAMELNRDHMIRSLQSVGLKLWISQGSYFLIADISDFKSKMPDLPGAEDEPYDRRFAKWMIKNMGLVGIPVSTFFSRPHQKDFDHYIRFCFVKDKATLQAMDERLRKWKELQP
Method: C) Kinetic analysis of KAT inhibitors using a partially Purified enzyme Preparation (Brain Research, 534, 37-44 (1990)
The reaction mixture contained [^3 H]KYN (30 nCi), diluted with unlabelled KYN to yield a final concentration of 2 μM, 1 mM pyruvate, 70 μM pyridoxal 5'-phosphate, 150 mM Tris-acetate buffer, pH 8.0, and a preparation of partially purified enzyme in a total volume of 0.1 ml. Test compounds were included in the incubation mixture as needed. The reaction was started by the addition of pyruvate. After incubation for 2 h at 37° C., the reaction was terminated by the addition of 14 μl of 50% (w/w) trichloroacetic acid. Subsequently, 1 ml of 0.1M HCl was added and denaturated protein was removed by a 4-min centrifugation in a Beckman 52B microfuge. 1 ml of the resulting supernatant was applied to a Dowex 50W column (0.5×1.0 cm; H^+ form) and washed with 1 ml of 0.1M HCl, followed by 1 ml of distilled water. [^3 H]KYNA was eluted with 2 ml of distilled water and quantitated by liquid scintillation spectrometry. Enzyme measurements were performed in triplicate samples. […]
Kinetic experiments were performed using the standard KAT assay described above by varying the concentration of KYN between 2 μM and 2 mM in the absence or presence of set concentrations of test compounds. Double reciprocal plots were constructed and lines of best fit were determined by linear regression analysis.

KYNA production % of inhibition ([2]; 100 μM) | KYNA production % of inhibition ([2]; 1000 μM) | Km (KAT) | Ki (KAT) | Compound | affinity to the glycine modulatory site of the NMDA receptor complex [1] | inhibition at 100 µM (KYNA production) | inhibition at 1000 µM (KYNA production) | inhibition at 300 µM (KYNA production; at 300 μM (footnote *))
– | – | – | – | O=C(O)c1cc(=O)c2ccccc2[nH]1 [KYNA, Kynurenic Acid] | particularly high affinity | – | – | –
61% | 89% | – | – | Nc1ccc(Cl)cc1C(=O)C[C@H](N)C(=O)O [FCE 28443, (S)-(-)-2-amino-4-(2-amino-5-chlorophenyl)-4-oxo-butyric acid] | – | 67% | 91% | –
13% | 51% | – | – | Cc1ccc(N)c(C(=O)CC(N)C(=O)O)c1 (centres unmarked) [FCE 27946, 2-amino-4-(2-amino-5-methylphenyl)-4-oxo-butyric acid] | – | – | 64% | 50%
52% | 83% | – | – | Nc1ccc(Br)cc1C(=O)CC(N)C(=O)O (centres unmarked) [FCE 28264, 2-amino-4-(2-amino-5-bromophenyl)-4-oxo-butyric acid] | – | 58% | 72% | –
50% | 72% | – | – | CCCc1ccc(N)c(C(=O)CC(N)C(=O)O)c1 (centres unmarked) [FCE 28244, 2-amino-4-(2-amino-5-n-propylphenyl)-4-oxo-butyric acid] | – | 27% | 70% | –
30% | 78% | – | – | CCc1ccc(N)c(C(=O)CC(N)C(=O)O)c1 (centres unmarked) [FCE 28026, 2-amino-4-(2-amino-5-ethylphenyl)-4-oxo-butyric acid] | – | 8% | 49% | –
45% | 72% | – | – | CC(C)c1ccc(N)c(C(=O)CC(N)C(=O)O)c1 (centres unmarked) [FCE 28441, 2-amino-4-(2-amino-5-isopropylphenyl)-4-oxo-butyric acid] | – | 5% | 54% | –
– | 31% | – | – | Nc1ccc(Cl)cc1C(=O)C[C@@H](N)C(=O)O [FCE 28442, (R)-(+)-2-amino-4-(2-amino-5-chlorophenyl)-4-oxo-butyric acid] | – | – | 45% | –
– | – | 369 µM | – | Nc1ccccc1C(=O)C[C@H](N)C(=O)O [L-kynurenine, reference compound] | – | – | – | –
45% | 81% | – | 88 µM | Nc1ccc(Cl)cc1C(=O)CC(N)C(=O)O (centres unmarked) [FCE 27813, 2-amino-4-(2-amino-5-chlorophenyl)-4-oxo-butyric acid] | – | 63% | 84% | –
30% | 74% | – | – | Nc1ccc(F)cc1C(=O)CC(N)C(=O)O (centres unmarked) [FCE 27949, 2-amino-4-(2-amino-5-fluorophenyl)-4-oxo-butyric acid] | – | 48% | 70% | –
47% | 77% | – | – | Nc1ccc(C2CCCCC2)cc1C(=O)CC(N)C(=O)O (centres unmarked) [FCE 28263, 2-amino-4-(2-amino-5-cyclohexylphenyl)-4-oxo-butyric acid] | – | 28% | 45% | –

From patent US5786508A, “Substituted kynurenines and process for their preparation” (Pharmacia & Upjohn S.p.A., priority 1995, dated 1998)
